Ends that are not written are not given here.
Columns and labels:
[1] = molecular target: T1, Plasminogen (Homo sapiens, UniProt P00747); test: Plasminogen binding to BSA-coupled C-terminal Plg-RKT peptide coated on microtiter wells, detected with anti-plasminogen MAb
T1 construct: host or cells: peptide is synthetic
Description: Our isolation method was consistent with exposure of the carboxyl-terminus of Plg-RKT (with its carboxyl-terminal lysine) on the cell surface and also with the ability of the carboxyl-terminal domain to bind to plasminogen. For verification, we tested whether a synthetic peptide, corresponding to the C-terminus of Plg-RKT could bind plasminogen. The peptide, CEQSKLFSDK (SEQ ID NO: 33) corresponding to the ten C-terminal amino acids of Plg-RKT with cysteine substituted for R138) was coupled to bovine serum albumin (BSA) and then coated onto wells of microtiter plates at 10 μg/ml. The wells were blocked with 5% BSA. Plasminogen (0.2 μM) was incubated with the wells, followed by our anti-plasminogen MAb^36 and detection with HRP-conjugated goat anti-mouse IgG (Biosource, Camarillo, Calif.). Plasminogen bound to the peptide in a concentration dependent manner with 50% maximal binding achieved at a plasminogen concentration of ˜10 nM. The binding was specific because it was blocked in the presence of epsilon-aminocaproic acid (EACA), consistent with the ability of EACA to inhibit plasminogen binding to differentiated Hoxa9-ER4 cells. […] In controls for the detection method, O.D.490 values obtained using an isotype control antibody or in the absence of added plasminogen were <5% of the values for plasminogen binding to the BSA-coupled peptide detected with anti-plasminogen MAb.

[2] = molecular target: T2, biotinylated plasminogen (Homo sapiens, UniProt P00747); test: Direct binding of biotinylated plasminogen to immobilized peptide (streptavidin-HRP)
T2 construct: host or cells: peptide is synthetic
Procedure: (§1) Mab36Al2 or control rat IgG2A was incubated with the Plg-RKT polypeptide, CEQSKLFSDK (SEQ ID NO: 33), coupled to BSA and immobilized on microtiter wells. In these assays, 200 nM biotinylated plasminogen was then added and plasminogen binding was detected with streptavidin-HRP.
(§2) In other assays to define the ligand recognition specificity of Plg-RKT for plasminogen. the Plg-RKT polypeptide, CEQSKLFSDK (SEQ ID NO: 33), was coupled to microtiter wells. Plasminogen was directly biotinylated and then incubated with the immobilized peptide and detected with streptavidin-HRP, as above. […] (K1-3 is comprised of the plasminogen amino acid sequences, Tyr^79-Val^337 or Tyr^79-Val^353. K4 is contained within the plasminogen amino acid sequences, Val^354-Ala^439. K5-PD is contained within the plasminogen amino acid sequences, Val^442-Asn^790 and contains kringle 5 as well as the latent protease domain.)

[3] = test system: plasminogen binding to the Plg-RKT polypeptide, CEQSKLFSDK (SEQ ID NO: 33); test: Inhibition of biotinylated plasminogen binding to immobilized Plg-RKT C-terminal peptide (streptavidin-HRP); design: species or system mouse
Procedure: as §1
(§3) We tested the ability of a peptide, CEQSRFFIDK (SEQ ID NO: 34), corresponding to the C terminus of human Plg-RKT (residues 139-147), to inhibit the binding of biotinylated-plasminogen to the C-terminal peptide CEQSKLFSDK (SEQ ID NO: 33), of mouse Plg-RKT when CEQSKLFSDK (SEQ ID NO: 33), was coupled to BSA and immobilized to microtiter plates as described above. […] Thus, the interaction of plasminogen with the C-terminal peptide of Plg-RKT requires the presence of a C-terminal lysine residue.
as §2

[4] = molecular target: T3, plasminogen binding to the Plg-RKT polypeptide, CEQSKLFSDK (SEQ ID NO: 33) (Mus musculus, UniProt Q9D3P8, R138C); test: as above; conditions: plasminogen domains from elastase digestion
T3 construct: host or cells: peptide is synthetic
Procedure: as §1, §3, §2

T1 sequence (P00747 20-810 limits assumed): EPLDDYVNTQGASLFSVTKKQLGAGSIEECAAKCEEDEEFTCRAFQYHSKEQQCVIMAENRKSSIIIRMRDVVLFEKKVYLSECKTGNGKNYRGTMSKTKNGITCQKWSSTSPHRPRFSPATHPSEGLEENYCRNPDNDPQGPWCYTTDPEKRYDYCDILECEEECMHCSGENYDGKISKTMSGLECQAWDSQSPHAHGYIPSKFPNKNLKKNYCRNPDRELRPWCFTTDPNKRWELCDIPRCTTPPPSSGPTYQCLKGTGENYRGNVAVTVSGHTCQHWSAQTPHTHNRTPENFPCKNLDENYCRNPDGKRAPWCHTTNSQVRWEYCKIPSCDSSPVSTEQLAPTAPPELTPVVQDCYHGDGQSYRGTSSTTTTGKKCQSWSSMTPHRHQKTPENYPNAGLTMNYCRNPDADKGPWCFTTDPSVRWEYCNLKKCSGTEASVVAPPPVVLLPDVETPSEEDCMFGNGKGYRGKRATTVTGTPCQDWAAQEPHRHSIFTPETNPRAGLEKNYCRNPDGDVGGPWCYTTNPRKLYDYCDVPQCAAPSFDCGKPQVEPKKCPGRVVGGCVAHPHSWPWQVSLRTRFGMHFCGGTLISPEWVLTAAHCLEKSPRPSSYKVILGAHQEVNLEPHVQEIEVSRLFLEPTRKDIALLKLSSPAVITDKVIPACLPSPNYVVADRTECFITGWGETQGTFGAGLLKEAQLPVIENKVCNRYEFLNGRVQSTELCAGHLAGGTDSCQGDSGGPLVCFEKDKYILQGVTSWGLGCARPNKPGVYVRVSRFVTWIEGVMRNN
T2 sequence (P00747 20-810 limits assumed): as above

In the case of `NCCCCCC(=O)O` [epsilon-aminocaproic acid], the “effect on plasminogen binding to the peptide CEQSKLFSDK” value ([1]; in the presence of EACA) is reported as “blocked”.

In the case of CEQSKLFSDK [CEQSKLFSDK], the “biotinylated-Plg binding to the immobilized peptide” value [2] is reported as “concentration-dependent manner”.

For “CEQSRFFIDA [mutant peptide with the C-terminal K replaced with A, reference compound]”, the “inhibition of plasminogen binding to immobilized CEQSKLFSDK (in words)” value (“inhibition of plasminogen binding” below) [3] was “not affected”.

CEQSRFFIDK [CEQSRFFIDK] was tested, and the “inhibition of plasminogen binding” value [3] was “inhibited in a dose-dependent manner”.

For “CEQSRFFIDK [peptide with R142 replaced with K, human C-terminal peptide with R142 replaced with K]”, the “inhibition of plasminogen binding” value [3] was “more effective competitor”.

“KDSFLKSQEC (listed as Mus musculus) [reverse peptide control, reference compound]” was tested, and the “nonspecific plasminogen binding, relative to binding to CEQSKLFSDK” value ([1]; control peptide on wells) was less than 10% and the “biotinylated-Plg binding to the immobilized peptide” value [2] was “no biotinylated-Plg binding”.

In the case of “Plg: plasminogen, precursor of plasmin with five kringle domains and a serine protease domain”, the “order of effectiveness in inhibiting plasminogen interaction with immobilized CEQSKLFSDK” value [4] is reported as “Plg>K1-3>K5>K4”.

B1: K5: plasminogen fragment within Val442-Asn790, kringle 5 and the latent protease domain (protein)
chain: VVAPPPVVLLPDVETPSEEDCMFGNGKGYRGKRATTVTGTPCQDWAAQEPHRHSIFTPETNPRAGLEKNYCRNPDGDVGGPWCYTTNPRKLYDYCDVPQCAAPSFDCGKPQVEPKKCPGRVVGGCVAHPHSWPWQVSLRTRFGMHFCGGTLISPEWVLTAAHCLEKSPRPSSYKVILGAHQEVNLEPHVQEIEVSRLFLEPTRKDIALLKLSSPAVITDKVIPACLPSPNYVVADRTECFITGWGETQGTFGAGLLKEAQLPVIENKVCNRYEFLNGRVQSTELCAGHLAGGTDSCQGDSGGPLVCFEKDKYILQGVTSWGLGCARPNKPGVYVRVSRFVTWIEGVMRN
In the case of B1, the “order of effectiveness in inhibiting plasminogen interaction with immobilized CEQSKLFSDK” value [4] is reported as “Plg>K1-3>K5>K4”.

B2: K1-3: plasminogen fragment Tyr79-Val337 or Tyr79-Val353, obtained by elastase digestion (protein)
chain: YLSECKTGNGKNYRGTMSKTKNGITCQKWSSTSPHRPRFSPATHPSEGLEENYCRNPDNDPQGPWCYTTDPEKRYDYCDILECEEECMHCSGENYDGKISKTMSGLECQAWDSQSPHAHGYIPSKFPNKNLKKNYCRNPDRELRPWCFTTDPNKRWELCDIPRCTTPPPSSGPTYQCLKGTGENYRGNVAVTVSGHTCQHWSAQTPHTHNRTPENFPCKNLDENYCRNPDGKRAPWCHTTNSQVRWEYCKIPSCDSSPV
With B2 the “order of effectiveness in inhibiting plasminogen interaction with immobilized CEQSKLFSDK” value [4] was “Plg>K1-3>K5>K4”.

— US8680242B2, “Plasminogen receptor, polypeptides and antibodies thereof” (priority 2008, dated 2014)
